Each structure is given as a SMILES string. Structures can show the parent of a compound that is named as a salt.

The test concerns LPS induced IL-6 secretion from whole blood. The experiment in a line: Measurement of LPS Induced IL-6 Secretion from Whole Blood. Type of test: cell-based. The note with it: IL-6 by immunoassay, LPS 200 ng/ml, 24 hours. As to the method:
Activation of monocytic cells by agonists of toll-like receptors such as bacterial lipopolysaccharide (LPS) results in production of key inflammatory mediators including IL-6. Such pathways are widely considered to be central to the pathophysiology of a range of auto-immune and inflammatory disorders.
Compounds to be tested are diluted to give a range of appropriate concentrations of which 1 μl of the diluted stocks is added to a 96 well plate. Following addition of whole blood (130 μl) the plates are incubated at 37 degrees (5% CO2) for 30 min before the addition of 10 μl of 2.8 ug/ml LPS, diluted in complete RPMI 1640 (final concentration=200 ng/ml), to give a total volume of 140 μl per well. After further incubation for 24 hours at 37 degrees, 140 μl of PBS are added to each well. The plates are sealed, shaken for 10 minutes and then centrifuged (2500 rpm×10 min). 100 μl of the supernatant are removed and IL-6 levels assayed by immunoassay (typically by MesoScale Discovery technology) either immediately or following storage at −20 degrees. Concentration response curves for each compound was generated from the data and an IC50 value was calculated.
For orientation: IC50 means the concentration that gives 50% inhibition. Higher therefore signals a need for much substance. `CC(=O)N1c2ccc(-c3ccc(CC(=O)NCCN(C)C)cc3)cc2[C@H](Nc2ccc(C#N)cn2)C[C@@H]1C` [Example 5, 2-(4-((2S,4R)-1-Acetyl-4-((5-cyanopyridin-2-yl)amino)-2-methyl-1,2,3,4-tetrahydroquinolin-6-yl)phenyl)-N-(2-(dimethylamino)ethyl)acetamide]: the half-maximal inhibitory concentration (IC50) was 0.0501 to 3.16 µM.
The same measure for `CC(=O)N1c2ccc(-c3ccc(C(=O)NCCO)cn3)cc2[C@H](Nc2ccc(C#N)cn2)C[C@@H]1C` [Example 12, 6-((2S,4R)-1-acetyl-4-((5-cyanopyridin-2-yl)amino)-2-methyl-1,2,3,4-tetrahydroquinolin-6-yl)-N-(2-hydroxyethyl)nicotinamide]: 0.0501 to 3.16 µM; for `CC(=O)N1c2ccc(-c3ccc(C(=O)NCCN(C)C)cc3)cc2[C@H](Nc2ccc(C#N)cn2)C[C@@H]1C` [Example 16, 4-((2S,4R)-1-acetyl-4-((5-cyanopyridin-2-yl)amino)-2-methyl-1,2,3,4-tetrahydroquinolin-6-yl)-N-(2-(dimethylamino)ethyl)benzamide dihydrochloride]: 0.0501 to 3.16 µM.
The molecule `CC(=O)N1c2ccc(-c3ccc(C(=O)NCCN(C)C)cc3)cc2[C@H](Nc2ccc(Cl)cc2)C[C@@H]1C` [Example 38, 4-((2S,4R)-1-acetyl-4-((4-chlorophenyl)amino)-2-methyl-1,2,3,4-tetrahydroquinolin-6-yl)-N-(2-(dimethylamino)ethyl)benzamide] had an IC50 of 0.0501 to 3.16 µM.
The result for `CC(=O)N1c2ccc(-c3ccc(C(=O)N4CCOCC4)cn3)cc2[C@H](Nc2cccc(Cl)c2)C[C@@H]1C` [Example 63] reads 0.0501 to 3.16 µM; that for `CC(=O)N1c2ccc(-c3ccc(C(=O)N4CCCC4)cc3)cc2[C@H](Nc2ccc(C)cn2)C[C@@H]1C` [Example 68, 1-((2S,4R)-2-methyl-4-((5-methylpyridin-2-yl)amino)-6-(4-(pyrrolidine-1-carbonyl)phenyl)-3,4-dihydroquinolin-1(2H)-yl)ethanone formate], 0.0501 to 3.16 µM.
Regarding `CC(=O)N1c2ccc(-c3ccc(C(=O)NCCCO)nc3)cc2[C@H](Nc2ccc(C#N)cn2)C[C@@H]1C` [Example 31, 5-((2S,4R)-1-acetyl-4-((5-cyanopyridin-2-yl)amino)-2-methyl-1,2,3,4-tetrahydroquinolin-6-yl)-N-(3-hydroxypropyl)picolinamide], the 50% inhibitory concentration (IC50) was 0.0501 to 3.16 µM.
`CC(=O)N1c2ccc(-c3ccc(C(=O)NC(CO)CO)cc3)cc2[C@H](Nc2ccccn2)C[C@@H]1C` [Example 21, 4-((2S,4R)-1-acetyl-2-methyl-4-(pyridin-2-ylamino)-1,2,3,4-tetrahydroquinolin-6-yl)-N-(1,3-dihydroxypropan-2-yl)benzamide] gave an IC50 of 0.0501 to 3.16 µM.
The molecule `CC(=O)N1c2ccc(-c3ccc(C(=O)N4CC(N)C4)nc3)cc2[C@H](Nc2ccc(C#N)cn2)C[C@@H]1C` [Example 37, 6-(((2S,4R)-1-acetyl-6-(6-(3-aminoazetidine-1-carbonyl)pyridin-3-yl)-2-methyl-1,2,3,4-tetrahydroquinolin-4-yl)amino)nicotinonitrile] showed an IC50 of 0.0501 to 3.16 µM.
Consider `CC(=O)N1c2ccc(-c3ccc(C(=O)NCCO)cc3)cc2[C@H](Nc2ccc(C#N)cn2)C[C@@H]1C` [Example 14, 4-((2S,4R)-1-acetyl-4-((5-cyanopyridin-2-yl)amino)-2-methyl-1,2,3,4-tetrahydroquinolin-6-yl)-N-(2-hydroxyethyl)benzamide], for which the IC50 was 0.0501 to 3.16 µM.
In turn, `CC(=O)N1c2ccc(-c3ccc(C(=O)NCCO)cc3)cc2[C@H](Nc2ccc(Cl)cc2)C[C@@H]1C` [Example 40, 4-((2S,4R)-1-acetyl-4-((4-chlorophenyl)amino)-2-methyl-1,2,3,4-tetrahydroquinolin-6-yl)-N-(2-hydroxyethyl)benzamide] showed an IC50 of 0.0501 to 3.16 µM.
Turning to `CC(=O)N1c2ccc(-c3ccc(C(=O)N4CCOCC4)cc3)cc2[C@H](Nc2ccc(C)cn2)C[C@@H]1C` [Example 56, 1-((2S,4R)-2-methyl-4-((5-methylpyridin-2-yl)amino)-6-(4-(morpholine-4-carbonyl)phenyl)-3,4-dihydroquinolin-1(2H)-yl)ethanone formate], the IC50 is 0.0501 to 3.16 µM.
For `CC(=O)N1c2ccc(-c3ccc(C(=O)N4CCOCC4)cn3)cc2[C@H](Nc2ccc(Cl)cn2)C[C@@H]1C` [Example 57, 1-((2S,4R)-4-((5-chloropyridin-2-yl)amino)-2-methyl-6-(5-(morpholine-4-carbonyl)pyridin-2-yl)-3,4-dihydroquinolin-1(2H)-yl)ethanone], the IC50 is 0.0501 to 3.16 µM.
In turn, `CC(=O)N1c2ccc(-c3ccc(C(=O)NC[C@H](C)O)cc3)cc2[C@H](Nc2ccc(Cl)cc2)C[C@@H]1C` [Example 42, 4-((2S,4R)-1-acetyl-4-((4-chlorophenyl)amino)-2-methyl-1,2,3,4-tetrahydroquinolin-6-yl)-N—((S)-2-hydroxypropyl)benzamide] showed a 50% inhibitory concentration (IC50) of 0.0501 to 3.16 µM.
In the case of `CC(=O)N1c2ccc(-c3ccc(C(=O)NCCO)nc3)cc2[C@H](Nc2ccc(C#N)cn2)C[C@@H]1C` [Example 29, 5-((2S,4R)-1-acetyl-4-((5-cyanopyridin-2-yl)amino)-2-methyl-1,2,3,4-tetrahydroquinolin-6-yl)-N-(2-hydroxyethyl)picolinamide], the IC50 was 0.0501 to 3.16 µM.
In turn, `CC(=O)N1c2ccc(-c3ccc(C(=O)NCCN(C)C)cn3)cc2[C@H](Nc2ccccn2)C[C@@H]1C` [Example 23, 6-((2S,4R)-1-acetyl-2-methyl-4-(pyridin-2-ylamino)-1,2,3,4-tetrahydroquinolin-6-yl)-N-(2-(dimethylamino)ethyl)nicotinamide] gave an IC50 of 0.0501 to 3.16 µM.
In the case of `CC(=O)N1c2ccc(-c3ccc(C(=O)N4CCOCC4)nc3)cc2[C@H](Nc2cccc(Cl)c2)C[C@@H]1C` [Example 62], the IC50 was 0.0501 to 3.16 µM.
The result for `CC(=O)N1c2ccc(-c3ccc(C(=O)NCCN(C)C)cc3)cc2[C@H](Nc2ccccn2)C[C@@H]1C` [Example 20, 4-((2S,4R)-1-acetyl-2-methyl-4-(pyridin-2-ylamino)-1,2,3,4-tetrahydroquinolin-6-yl)-N-(2-(dimethylamino)ethyl)benzamide] reads 0.0501 to 3.16 µM; that for `CC(=O)N1c2ccc(-c3ccc(C(=O)NCCN)cc3)cc2[C@H](NC(=O)OC(C)C)C[C@@H]1C` [Example 6, Isopropyl ((2S,4R)-1-acetyl-6-(4-((2-aminoethyl)carbamoyl)phenyl)-2-methyl-1,2,3,4-tetrahydroquinolin-4-yl)carbamate hydrochloride], 0.0501 to 3.16 µM; that for `CC(=O)N1c2ccc(-c3ccc(CC(=O)NCCO)cc3)cc2[C@H](Nc2ccc(C#N)cn2)C[C@@H]1C` [Example 3, 2-(4-((2S,4R)-1-Acetyl-4-((5-cyanopyridin-2-yl)amino)-2-methyl-1,2,3,4-tetrahydroquinolin-6-yl)phenyl)-N-(2-hydroxyethyl)acetamide], 0.0501 to 3.16 µM.
The result for `CC(=O)N1c2ccc(-c3ccc(C(=O)N4CCOCC4)cn3)cc2[C@H](Nc2cnc(C)cn2)C[C@@H]1C` [Example 60, 1-((2S,4R)-2-methyl-4-((5-methylpyrazin-2-yl)amino)-6-(5-(morpholine-4-carbonyl)pyridin-2-yl)-3,4-dihydroquinolin-1(2H)-yl)ethanone] reads 0.0501 to 3.16 µM.

For the origin of these results see patent publication US8993554B2, “Tetrahydroquinoline derivatives useful as bromodomain inhibitors” (GlaxoSmithKline LLC, priority 2011, dated 2015).
